# Experimental data from a melting point compilation (Tetko et al.; mined from patent text by program, amines drawn as free bases though some values may be those of a salt).
row,Compound,melting point [°C]
1,CONS(=O)(=O)c1ccc(C)cc1,116 to 117
2,NS(=O)(=O)c1ccccc1SCCF,83 to 85
3,Nc1nc(N)c2ncn(C3OC(CO)C(O)C3O)c2n1 (configuration not stated),238 to 240
4,COC(=O)c1c(CBr)cccc1CBr,76 to 79
5,COc1cc(NC(=O)n2cc(F)c(=O)[nH]c2=O)cc(OC)c1OC,168 to 170
6,COC(=O)c1cc(=O)c2cc3[nH]c(=O)oc3cc2[nH]1,297
7,NC(=O)NCc1ccc2ccn(C3CCN(CCc4ccc(F)cc4)CC3)c2c1,172 to 173
8,CN1Cc2ccc(Cl)c3scc(c23)S1(=O)=O,146
9,O=C1NCCN1c1ccc(S(=O)(=O)Oc2ccc3[nH]ccc3c2)cc1,226 to 227
10,O=NCNC1=Nc2ccc(Br)cc2C(c2ccccn2)=NC1,102 to 106
11,Nc1nc(NCc2ccccc2)nc(C(F)(F)F)n1,183 to 185
12,COc1ccc(CCBr)cc1OC,72 to 73
13,CC1Cc2c(-n3nc(C#N)c(=O)[nH]c3=O)ccc(Cl)c2O1 (configuration not stated),244 to 245
14,CNNC(=O)OC(C)(C)C,50
15,Cc1ccc(C)c(P(=O)(C(=O)c2c(Cl)cccc2Cl)C(=O)c2c(Cl)cccc2Cl)c1,172
16,C[C@H]1[C@H]2O[C@H]2C(S(=O)(=O)c2ccccc2)=C[C@H](C)[C@H]1O[Si](C)(C)C(C)(C)C,89 to 90

row,Compound,melting point [°C]
1,CCn1ncc2c3[nH]cnc(=O)c3cnc21,320 to 322
2,NS(=O)(=O)c1cc2[nH]c(=O)c(=O)[nH]c2cc1[N+](=O)[O-],> 330
3,CCCCCCCCCCCCCCCCCCOCC(O)COC(c1ccccc1)(c1ccccc1)c1ccccc1 (configuration not stated),53 to 55
4,Cc1ccc(NC(=O)c2ccc(CN3CCN(C)CC3)c(C(F)(F)F)c2)cc1-c1ccc2ccncc2c1,153 to 154
5,CCc1nc(-c2ccnnc2)no1,73 to 74
6,CCOC(=O)ON(C(=O)NC)c1ccc(Cl)c(Cl)c1,97 to 98
7,CC1(C)COC(=O)N1Cc1ccccc1[N+](=O)[O-],103 to 106
8,CN(Cc1ccc(N)cc1)C1CCN(c2ccc(N)cc2)CC1,123
9,COc1ccc(-c2nc(CCCCCC(C)(C)c3nnn[nH]3)oc2-c2ccc(OC)cc2)cc1,82
10,C[Si](C)(C)Sc1nnnn1-c1ccccc1,67 to 68
11,CSc1nc(C)nc(N)n1,161 to 163
12,COC1=CC=CC(OCCCN2CCN(c3n[nH]c4ccccc34)CC2)(C(C)=O)C1 (configuration not stated),155 to 157
13,COc1cc2c(cc1OC)CCC(C(=N)NO)=C2,202 to 205
14,CCSc1ccc(-c2nccs2)c2c1C(=O)CC(C)C2 (configuration not stated),117 to 118
15,Cc1cc(-c2ncn3c(C(F)(F)F)cc(-c4ccc(C(F)(F)F)cc4)nc23)ccn1,257

# More lines, now with the values ahead:
row,melting point [°C],Compound
1,132 to 134,COc1ccc(-c2ccccc2C(SCC(=O)c2ccccc2)C(O)C(N)=O)cc1 (configuration not stated)
2,190 to 192,FC(F)(F)c1ccccc1-c1n[nH]c(-c2ccccc2C(F)(F)F)n1
3,210 to 213,CC(=O)Oc1ccc2nc(NC(=O)Nc3ccccc3)sc2c1
4,160,Cn1c(=O)n(Cc2ccc(F)cc2)c(=O)c2cc(C#CCc3ccccc3)ccc21
5,90 to 92,Nc1cc2c(cc1C(=O)c1ccccc1Cl)CCC2
6,108 to 129,CC(NC(=O)C1C(O)N(Cc2ccccc2)C(=O)N1Cc1ccccc1)c1cccs1 (configuration not stated)
7,141 to 142,Cc1cccc(C)c1N(CCCC(=O)NCCCC(=O)O)C(=O)c1ccc(Cl)cc1
8,137 to 140,C[C@]1(CN2CCC(NC(=O)Nc3ccc(C(F)(F)F)cc3)CC2)Cn2cc([N+](=O)[O-])nc2O1
9,169 to 171,Cc1cc(C)c(COc2cccnc2NC(=N)Nc2ccc(Cl)cc2)c(C)c1
10,156 to 158,O=C(NCC#Cc1ccc(C#CCNC(=O)OCc2ccccc2)nc1)OCc1ccccc1
11,145,Cc1c(C(=O)O)cnn1-c1cccc(Cl)c1
12,220 to 222,Cc1ccc(-c2ccc(C(=O)Nc3ccc4nc(CN(C)C)ccc4c3)cn2)cc1
13,92 to 93,CC(=O)N1CC(CCN2CCC(c3ccccc3)CC2)c2ccccc21 (configuration not stated)
14,73 to 76,COC(=O)C1C2C=CC(C2)C1NC(=O)OCc1ccccc1 (configuration not stated)
15,92 to 93,COc1nc2ccccc2cc1C=O
16,195 to 210,COC(=O)c1ccc(-c2nc3cc(C(=O)OC)ccc3o2)cc1
17,219 to 220,CC(C(N)=O)c1ccc(-c2cn3ccccc3n2)cc1 (configuration not stated)
18,135 to 136,CC(=O)c1cccc(N=P(c2ccccc2)(c2ccccc2)c2ccccc2)c1
19,253 to 254,COC(=O)c1nc(NC(C)=O)sc1-c1ccc(SC)cc1
20,68 to 69,COc1cccc2c(CC(=O)OCC(=O)CCc3ccccc3)coc12
21,141 to 146,CNC(=O)c1nc2ccc3c(c2c(-c2ccc4c(c2)OCO4)c1C)OCO3
